According to patent US9499472B2, “Aspartylamide inhibitors of excitatory amino acid transporters” (priority 2012, dated 2016):
Where two headings read alike, the source gives them in different places.

Tests used:
EAAT2 [1] = molecular target: T1, EAAT2 (Rattus norvegicus, UniProt P31596); assay: tracer PET brain imaging and quantitative EAAT2 detection in rat; type: in vivo, rat (Sprague-Dawley); conditions: 5 mg/Kg dose 10 minutes before tracer 2, all CNS ROIs, all times post-injection
T1 construct: from tissue; host or cells: live male Sprague-Dawley rat brain and spinal cord (in vivo PET)
T1 sequence (P31596 whole entry): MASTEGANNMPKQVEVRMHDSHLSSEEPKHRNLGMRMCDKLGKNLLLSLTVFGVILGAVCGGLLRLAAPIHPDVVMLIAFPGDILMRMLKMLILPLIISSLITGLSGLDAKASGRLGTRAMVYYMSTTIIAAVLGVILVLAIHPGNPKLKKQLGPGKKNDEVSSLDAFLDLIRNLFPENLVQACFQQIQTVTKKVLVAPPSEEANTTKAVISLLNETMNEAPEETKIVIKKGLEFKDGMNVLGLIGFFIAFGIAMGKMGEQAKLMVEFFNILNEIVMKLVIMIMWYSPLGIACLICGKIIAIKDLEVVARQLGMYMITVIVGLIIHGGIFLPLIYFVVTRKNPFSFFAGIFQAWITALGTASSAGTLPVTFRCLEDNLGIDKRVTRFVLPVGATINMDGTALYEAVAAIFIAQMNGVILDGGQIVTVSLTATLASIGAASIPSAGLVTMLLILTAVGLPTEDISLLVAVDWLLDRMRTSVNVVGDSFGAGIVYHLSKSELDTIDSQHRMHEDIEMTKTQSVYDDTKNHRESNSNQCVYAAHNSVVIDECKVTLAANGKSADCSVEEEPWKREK
Description: As an example of the tracer compound of the invention, rodent (rat) quantitative in vivo PET imaging trials are presented employing the tracer compound 2 of Example VI. The in vivo PET imaging was performed in parallel with magnetic resonance (MR) and computed axial tomography (CAT, CT) imaging methods, in which the latter two imaging methods afforded anatomical tissue information for co-registration to the acquired tracer quantitative PET data. […] Two rodent imaging trials (A-B) were performed employing two age-matched male Sprague-Dawley subjects. The age of the subjects were nearly identical to those described in the most recent rat (Sprague-Dawley, amongst others) stereotaxic brain atlas (Paxinos et al., “[…],” Academic Press: Burlington, Mass. (2007))
providing high confidence levels for identification and definition of explicit brain cerebral fine tissue structures as regions of interest (ROIs) for quantitative analysis, and as a function of three-dimensional (3D) co-registration of cerebral soft tissue identification by MR scan analysis and landmark anatomical features from CAT data.
The PET data were acquired with a Siemens Inveon microPET scanner (ca. 1.5 mm spatial resolution). Rodent subject tail vein tracer 2 injection volumes (Table 1) used the tracer 2 dose formulation described in Example VI. […]

[2] = brain penetration and metabolism in live mice, LC/MS-MS of compound 6 in brain and plasma; type: in vivo, C57BL/6 mice; conditions: for levels of compound 6 (hydrolyzed compound 1) per gram brain tissue: mouse, 10 mg/Kg tail vein injection, all time points 1-90 min, ester vs acid administered
Description: A series of separate experiments were performed with compounds 1 or 6 in groups of C57BL/6 mice (6-8 weeks old; Charles River, Wilmington, Mass.) as a function of dose and time, where concentrations of compound 6 in brain and plasma (nanogram of compound 6/g of brain tissue or blood) were measured by liquid chromatography/mass spectrometry (LC/MS-MS) detection by literature methods (Chernet et al., Life Sci. 78:340-346 (2005)). In general, doses of compounds 1 and 6 were prepared at 1, 5 or 10 mg/Kg in a homogenous solution composed of 3% dimethyl sulfoxide and 97% […] pH 7.4. Doses (0.25 mL volume) were administered by tail vein injection to groups (n≧3) of mice. Mice were sacrificed at 1, 3 10, 30, 60, 90 and 100 minutes post-injection. For some groups of mice, brains were removed, weighed, homogenized (polytron, in SDS and water) extracted with acetonitrile and then centrifuged where the acetonitrile supernatant was collected. For other groups of mice, blood was collected ([…]), weighed, and then the samples were centrifuged where the supernatant plasma was collected and extracted with acetonitrile with and without 0.1% formic acid. To validate the extraction methods, other control (non-dosed) mice brains and plasma samples were spiked with various amounts (5-25,000 ng) of compound 6 and were processed in a similar fashion and then analyzed as described below. Respective acetonitrile extracts were diluted with methanol and 20 μL portions were then subjected to analytical reverse phase (C-18 analytical column, isocratic acetonitrile/water solvent) high performance liquid chromatography (HPLC), where the HPLC fractions were quantified using a mass spectrometer set to selectively monitor the mass-to-charge ratio of singly protonated compound 6 (C17H16FN2O3, exact mass: 315.11). In other analyses, a standard curve of compound 6 was constructed (5-25,000 nanogram mass range) and analyzed similarly. Quantities (nanograms, ng) of compound 6 from the dosed treated mouse brain and plasma samples were determined by correlation to the quantitative control spike method of detection (above) and also confirmed by interpolations against the compound 6 standard curve. Data was imported into Microsoft Excel and plotted as nanogram (ng) of detected hydrolyzed compound 1 (that is, compound 6/gram (g) brain tissue or plasma versus time (minutes). The data from the mouse experiments are shown in FIGS. 4 and 5.
Shown in FIG. 4 are the results from 10 mg/Kg administration of the ester compound 1 (shown as black bars) or the acid compound 6 (shown as grey bars) relative to the amounts of hydrolyzed compound 1 (that is, compound 6) per gram brain tissue at time points 1, 3, 10, 60 and 90 minutes post-injection. […]

[3] = tested on: panel of central nervous system protein binding sites defined in FIG. 8; assay: competitive radioligand binding panel of central nervous system protein binding sites (FIG. 8); design: key: No Activity: no greater than or equal to 50% inhibition of binding; conditions: 1 micromole assay concentration, duplicate
Description: In separate in vitro competitive pharmacological assays performed in duplicate, compounds 1 and 6 at 1 micromole concentrations were evaluated against the panel of central nervous system protein binding sites that are defined in FIG. 8. As noted in FIG. 8, the assays utilized specific established radioligands for the respective competition binding assays, and respective assay ligand standards that afforded respective pharmacological inhibition binding curves of half maximal inhibitory concentration (IC50) values. […] In other words, the concentrations of compounds 1 and 6 that would be required to inhibit the FIG. 8 radioligand bindings at their respective protein sites would have to be greater than 1 micromole concentration.

EAAT2 [4] = molecular target: T2, EAAT2 (Homo sapiens, UniProt P43004); assay: [3H]D-aspartate uptake by EAAT2 transiently expressed in C17.2 cells; type: cell-based
T2 construct: expressed in transfected cells; host or cells: C17.2 cells, transient transfection with FuGENE6
T2 sequence (P43004 whole entry): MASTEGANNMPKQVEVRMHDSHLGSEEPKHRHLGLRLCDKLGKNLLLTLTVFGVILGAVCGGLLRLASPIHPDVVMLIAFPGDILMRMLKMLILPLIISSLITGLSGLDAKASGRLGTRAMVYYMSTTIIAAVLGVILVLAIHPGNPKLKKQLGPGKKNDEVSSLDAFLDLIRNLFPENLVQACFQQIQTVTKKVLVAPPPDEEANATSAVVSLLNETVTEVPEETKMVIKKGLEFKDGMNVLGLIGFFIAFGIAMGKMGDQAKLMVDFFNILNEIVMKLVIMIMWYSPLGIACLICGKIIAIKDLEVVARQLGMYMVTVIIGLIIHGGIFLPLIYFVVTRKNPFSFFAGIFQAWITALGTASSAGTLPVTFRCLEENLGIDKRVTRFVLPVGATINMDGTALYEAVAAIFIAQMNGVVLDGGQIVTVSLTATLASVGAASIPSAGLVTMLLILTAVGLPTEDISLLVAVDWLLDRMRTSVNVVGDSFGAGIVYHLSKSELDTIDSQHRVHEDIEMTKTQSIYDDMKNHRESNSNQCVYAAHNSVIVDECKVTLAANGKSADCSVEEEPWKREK
Description: The excitatory amino acid transporter 2 (EAAT2) was transiently expressed in C17.2 cells using an AAV-based vector pAM-CAG-EAAT3-WPRE as described in the literature (Esslinger). Cells between passages 10-20 were seeded at 5×10^4 cells/well in 12 well plates and grown in complete DMEM supplemented with 10% fetal bovine serum, 1 mM sodium pyruvate, 0.1 mM nonessential amino acids solution. At 24 hours after plating, cells were transfected using FuGENE6 Transfection Reagent (Roche, Indianapolis, Ind.) in a ratio of 4 μL of FuGENE6 to 3 μg of purified plasmid DNA in accordance with manufacturers instructions. The cells were used in the transport assays 24 hours following transfection as described by Esslinger. Briefly, transfected C17.2 cells were grown in DMEM containing 10% FCS in a humid atmosphere of 5% CO2. Near-confluent cells (plated at 5×10^4 cells/well) were rinsed with a physiological buffer (138 mM NaCl, 11 mM D-glucose, 5.3 mM KCl, 0.4 mM KH2PO4, 0.3 mM Na2HPO4, 1.1 mM CaCl2, 0.7 mM MgSO4, 10 mM HEPES, pH 7.4) and allowed to pre-incubate at 37° C. for 5 minutes.
Three types of binding experiments were performed: a) single concentrations of compounds 1 or 6 were added simultaneously to the cell assay with 1 μM ^3H-D-aspartate, b) six or more concentrations of compound 6 were added simultaneously to the cell assay with 1 μM ^3H-D-aspartate; and c) six or more concentrations of compound 6 were pre-incubated with cells for 25 minutes, after which 1 μM ^3H-D-aspartate was added to the cell to initiate the assay. […] The cells were dissolved in 0.4 N NaOH for 24 hours and analyzed for radioactivity by liquid scintillation counting and protein by the BCA (Pierce) method. For each type of uptake assay experiment, they were conducted with at least 2 cell-containing tissue culture wells, with duplicate samples from each well analyzed for radioactivity. […] Initial studies confirmed that uptake quantified in this manner was linear with time and protein levels and also that uptake in un-transfected C17.2 cells was indistinguishable from background. […]

Compound | reduction of tissue SUV signals of tracer 2 by pre-administration (challenge) (EAAT2 [1]) | amount of compound 6 detected in mouse brain, 5 mg/Kg versus 1 mg/Kg ([2]; mouse brain, 3, 10 and 100 minutes post-injection) | amount of compound 6 detected in plasma, 5 mg/Kg versus 1 mg/Kg ([2]; mouse plasma, 3 and 10 minutes post-injection) | levels of compound 6 (hydrolyzed compound 1) per gram brain tissue [2] | inhibition of binding of FIG. 8 radioligands at their protein binding sites [3] | IC50 (EAAT2 [4]; IC50, EAAT2 interaction, first experimental in vitro conditions (single concentrations, simultaneous addition)) | inhibition of 1 μM [3H]D-aspartate uptake by EAAT2 (EAAT2 [4]; concentrations up to 10 μM, added simultaneously with 3H-D-aspartate, 5 min) | inhibition of 1 μM [3H]D-aspartate uptake by EAAT2 (EAAT2 [4])
COC(=O)[C@@H](N)CC(=O)Nc1ccc2c(c1)Cc1cc(F)ccc1-2 [compound 1, (S)-Methyl 2-amino-4-(7-fluoro-9H-fluoren-2-ylamino)-4-oxobutanoate] | 2-3 fold | dose amount dependence | dose amount dependence | higher levels | No Activity | > 10 µM | little or no inhibition | 
N[C@@H](CC(=O)Nc1ccc2c(c1)Cc1cc(F)ccc1-2)C(=O)O [compound 6, (S)-2-Amino-4-(7-fluoro-9H-fluoren-2-ylamino)-4-oxo-butanoic acid] |  |  |  | lower levels | No Activity |  |  | almost completely inhibited all uptake
